Results on ten molecules are retold here after patent US10851062B2, “Substituted heteroaryl compound, composition containing same, and application thereof” (Shenzhen TargetRx, Inc., priority 2016, dated 2020).

Where two headings read alike, the source gives them in different places. A value given as a limit tells only on which side of the number the result lay.

A short description of data set [1]: Metabolic stability in rat liver microsomes. Type of data set: in vitro ADME, SD rat. The following applies: rat liver microsomes 0.5 mg/mL, compound 1 μM, NADPH, 37° C.; for microsomal CLint at 1 μM / half-life at 1 μM: Sprague-Dawley, pH 7.4; for half-life at 1 μM: read-out: t1/2 in rat liver microsomes. As to the method: (§1) Experiments in microsomes: Human liver microsomes: 0.5 mg/mL, Xenotech; Rat liver microsomes: 0.5 mg/mL, Xenotech; Coenzyme (NADPH/NADH): 1 mM, Sigma Life Science; Magnesium chloride: 5 mM, 100 mM phosphate buffer (pH 7.4).
(§2) Preparation of stock solution: Powder of the example compound 1-7 was accurately weighed and dissolved in DMSO to 5 mM. Preparation of phosphate buffer (100 mM, pH7.4): A pre-formulated 0.5M potassium dihydrogen phosphate (150 mL) was mixed with 0.5M dibasic potassium phosphate (700 mL). The pH of the mixture was adjusted to 7.4 with 0.5M dibasic potassium phosphate solution. The mixture was diluted 5-fold with ultrapure water before use, and magnesium chloride was added to obtain a phosphate buffer (100 mM) containing 100 mM potassium phosphate, 3.3 mM magnesium chloride, pH 7.4. A NADPH regeneration system solution (containing 6.5 mM NADP, 16.5 mM G-6-P, 3 U/mL G-6-PD, 3.3 mM magnesium chloride) was prepared and placed on wet ice prior to use. Preparation of stop solution: acetonitrile solution containing 50 ng/mL propranolol hydrochloride and 200 ng/mL tolbutamide (internal standard). 25057.5 μL of phosphate buffer (pH 7.4) was taken into a 50 mL centrifuge tube, to which 812.5 μL human liver microsomes were added, and mixed to obtain a liver microsome dilution solution with a protein concentration of 0.625 mg/mL. 25057.5 μL of phosphate buffer (pH 7.4) was taken into a 50 mL centrifuge tube, to which 812.5 μL SD rat liver microsomes were added, and mixed to obtain a liver microsome dilution solution with a protein concentration of 0.625 mg/mL.
(§3) Incubation of the samples: The stock solution of the respective compound was respectively diluted to 0.25 mM with an aqueous solution containing 70% acetonitrile, and used as a working solution, ready for use. 398 μL of the dilution solution of human liver microsomes or rat liver microsome were added to a 96-well incubation plate (N=2), respectively, and 2 μL of 0.25 mM working solution was added and mixed.
(§4) Metabolic stability assay: 300 μL of pre-chilled stop solution was added to each well of a 96-well deep well plate and placed on ice as a stop plate. The 96 well incubation plate and NADPH regeneration system were placed in a 37° C. water bath box, shaken at 100 rpm and pre-incubated for 5 min. 80 μL of incubation solution was taken out from each well of the incubation plate and added to the stop plate, mixed, and replenished with 20 μL of NADPH regeneration system solution as a 0-min sample. 80 μL of NADPH regeneration system solution was added to each well of the incubation plate to start the reaction and start counting. […] Separately, 100 μL of the reaction solution was taken at 10, 30, and 90 min reaction, respectively, added to a stop plate, and vortexed for 3 minutes to terminate the reaction. The stop plate was centrifuged at 5000×g at 4° C. for 4 min. 100 μL of the supernatant was added to a 96-well plate to which 100 μL of distilled water was previously added, mixed, and analyzed by LC-MS/MS.
(§5) Data analysis: The peak areas of the corresponding compound and internal standard were detected by LC-MS/MS system, and the ratio of the peak area of the compound to the internal standard was calculated. The slope was measured by plotting the natural logarithm of the percent of compound remaining versus time, and t1/2 and CLint were calculated according to the formula, where V/M is equal to 1/protein concentration.
(In general: Liver microsomes are vesicles of endoplasmic reticulum, rich in cytochrome P450 enzymes.)

Data set [2] in a line: Pharmacokinetic evaluation in rats. Particulars: rat; for AUC(0-inf) / AUC(0-t) / Tmax / MRT inf / F / half-life / Cmax: male, Sprague-Dawley; for AUC(0-inf) / AUC(0-t) / Tmax / MRT inf / Cmax: plasma; for MRT inf: read-out: MRTINF_pred; for F / half-life: in vivo. It is filed as in vivo, Sprague-Dawley rats. The protocol:
6 male Sprague-Dawley rats (7-8 weeks old, and weighing approximately 210 g) were divided into 2 groups with 3 rats in each group. The rats were intravenously or orally administered a single dose of compound (3 mg/kg intravenously, 10 mg/kg orally) to compare pharmacokinetic differences.
The rats were raised on standard food and water. Fasting was started 16 hours before the test. The drug was dissolved with PEG400 and dimethyl sulfoxide. The blood samples were collected from eyelids at the time points of 0.083 hours, 0.25 hours, 0.5 hours, 1 hour, 2 hours, 4 hours, 6 hours, 8 hours, 12 hours, and 24 hours after administration.
Rats were briefly anesthetized after inhalation of diethyl ether and 300 μL of blood sample was collected from the eyelids into test tubes. There was 30 μL of 1% heparin salt solution in the test tube. Tubes were dried at 60° C. overnight before use. After the blood sample was collected at a later time point, the rats were sacrificed after ether anesthesia.
Immediately after the collection of the blood sample, the test tube was gently inverted at least 5 times to ensure sufficient mixing and then placed on ice. The blood sample was centrifuged at 5000 rpm at 4° C. for 5 minutes to separate the plasma from the red blood cells. 100 μL of plasma was aspirated into a clean plastic centrifuge tube with a pipette, marking with the name of the compound and time point. Plasma was stored at −80° C. prior to analysis. The concentration of the compound of the present disclosure in plasma was determined by LC-MS/MS. The pharmacokinetic parameters were calculated based on the blood concentration of each animal at different time points.

Data set [3] can be described thus: Metabolic stability in human liver microsomes. Type of data set: in vitro ADME. Particulars: pH 7.4, human liver microsomes 0.5 mg/mL, compound 1 μM, NADPH, 37° C.; for half-life at 1 μM: read-out: t1/2 in human liver microsomes. The protocol:
as §1, §2, §3, §4, §5

A word on the microsomal CLint: it is the rate of metabolic loss divided by the concentration. High values mean rapid turnover, low ones slow turnover. One may read the AUC(0-inf) as total exposure, with the tail of the curve extrapolated. One may read the AUC(0-t) as exposure summed from dosing to a finite time, without extrapolation to infinity. Lower therefore signals low exposure. For orientation: Tmax means the time from dosing to the highest level. In general, Cmax refers to the peak of the concentration-time curve. In the case of `[2H]C([2H])(NC(=O)c1nc(C)c2cc(Oc3ccccc3)ccc2c1O)C(=O)O` [Compound 11, N-[(4-hydroxy-1-methyl-7-phenoxy-3-isoquinolinyl)carbonyl]-2,2-d2-glycine], in data set [1], the intrinsic metabolic clearance (microsomal CLint) at 1 μM is below 8.6 µL/min/mg and the half-life at 1 μM was above 2.42 h. For the same molecule, in data set [2] (IV, 3 mg/kg single dose), the AUC(0-inf) is 51.6 µg·h/mL, the AUC(0-t) is 51.6 µg·h/mL, the Tmax stood at 0.08 h and the MRT inf is 2.84 h. In data set [2] (IV, 3 mg/kg single dose), this molecule showed a Cmax of 19000 ng/mL and a Vz_pred of 0.21 L/kg. In addition, in data set [2] (PO, 10 mg/kg single dose), the AUC(0-inf) was found to be 261 µg·h/mL, the AUC(0-t) is 260 µg·h/mL, the Tmax is 4 h and the MRT inf was 5.87 h. In data set [2] (PO, 10 mg/kg single dose), the peak level (Cmax) was 24600 ng/mL and the Vz_pred stood at 0.16 L/kg. In addition, the F in data set [2] was 151.17%. The same molecule gave a half-life in data set [2] (iv, 3 mg/kg) of 2.43 h. The same molecule gave a half-life in data set [2] (po, 10 mg/kg) of 2.77 h.

With `[2H]Cc1nc(C(=O)NCC(=O)O)c(O)c2ccc(Oc3ccccc3)cc12` [Compound 13, N-[(4-hydroxy-1-d-methyl-7-phenoxy-3-isoquinolinyl)carbonyl] glycine], the microsomal CLint at 1 μM in data set [3] and in data set [1] was below 8.6 µL/min/mg each time. Further, the half-life at 1 μM in data set [3] and in data set [1] was above 2.42 h in each case.

As for `[2H]c1cc([2H])c(Oc2ccc3c(O)c(C(=O)NCC(=O)O)nc(C)c3c2)c([2H])c1` [Compound 23], the microsomal CLint at 1 μM in data set [3] and in data set [1] was below 8.6 µL/min/mg in each case. Also, the half-life at 1 μM in data set [3] and in data set [1] was above 2.42 h throughout.

With `[2H]c1c([2H])c([2H])c(Oc2ccc3c(O)c(C(=O)NCC(=O)O)nc(C)c3c2)c([2H])c1[2H]` [Compound 32, N-[(4-hydroxy-1-methyl-7-(d5-phenoxy)-3-isoquinolinyl)carbonyl] glycine], in data set [3], the microsomal CLint at 1 μM was below 8.6 µL/min/mg and the half-life at 1 μM is above 2.42 h. Further, in data set [1], the microsomal CLint at 1 μM was below 8.6 µL/min/mg and the half-life at 1 μM was above 2.42 h. Moreover, in data set [2] (IV, 3 mg/kg single dose), the AUC(0-inf) was 55.9 µg·h/mL, the AUC(0-t) turned out to be 55.9 µg·h/mL, the Tmax turned out to be 0.75 h and the MRT inf worked out at 3.14 h. In data set [2] (IV, 3 mg/kg single dose), this molecule returned a Cmax of 12200 ng/mL and a Vz_pred of 0.18 L/kg. Further, in data set [2] (PO, 10 mg/kg single dose), the AUC(0-inf) was determined as 185 µg·h/mL, the AUC(0-t) came to 185 µg·h/mL, the Tmax was found to be 0.83 h and the MRT inf is 5.33 h. In data set [2] (PO, 10 mg/kg single dose), this molecule came in with a Cmax of 17700 ng/mL and a Vz_pred of 0.21 L/kg. The F in data set [2] turned out to be 99.05%. The molecule also gave a half-life in data set [2] (iv, 3 mg/kg) of 2.49 h. Further, the half-life in data set [2] (po, 10 mg/kg) was 2.43 h.

Take `[2H]C([2H])(NC(=O)c1nc(C([2H])([2H])[2H])c2cc(Oc3ccccc3)ccc2c1O)C(=O)O` [Compound 36, N-[(4-hydroxy-1-(d3-methyl)-7-phenoxy-3-isoquinolinyl)carbonyl]-2,2-d2-glycine]: the microsomal CLint at 1 μM in data set [3] and in data set [1] was below 8.6 µL/min/mg each time. The half-life at 1 μM in data set [3] and in data set [1] was above 2.42 h throughout.

For the molecule `[2H]c1cccc(Oc2ccc3c(O)c(C(=O)NCC(=O)O)nc(C)c3c2)c1` [Compound 46, N-[(4-hydroxy-1-methyl-7-(3-d-phenoxy)-3-isoquinolinyl)carbonyl]glycine], the microsomal CLint at 1 μM in data set [3] and in data set [1] was below 8.6 µL/min/mg throughout. Also, the half-life at 1 μM in data set [3] and in data set [1] was above 2.42 h throughout.

`[2H]c1cc([2H])c(Oc2ccc3c(O)c(C(=O)NC([2H])([2H])C(=O)O)nc(C)c3c2)c([2H])c1` [Compound 47]: in data set [3], the intrinsic clearance (microsomal CLint) at 1 μM was below 8.6 µL/min/mg and the half-life at 1 μM was above 2.42 h. In addition, in data set [1], the intrinsic metabolic clearance (microsomal CLint) at 1 μM was below 8.6 µL/min/mg and the half-life at 1 μM is above 2.42 h.

Regarding `[2H]c1c([2H])c([2H])c(Oc2ccc3c(O)c(C(=O)NC([2H])([2H])C(=O)O)nc(C)c3c2)c([2H])c1[2H]` [Compound 48, N-[(4-hydroxy-1-methyl-7-(d5-phenoxy))-3-(3-isoquinolinyl)carbonyl]-2,2-d2-glycine], in data set [3], the intrinsic metabolic clearance (microsomal CLint) at 1 μM is below 8.6 µL/min/mg and the half-life at 1 μM was above 2.42 h. Besides, in data set [1], the microsomal CLint at 1 μM is below 8.6 µL/min/mg and the half-life at 1 μM was above 2.42 h.

Take `[2H]c1cccc(Oc2ccc3c(O)c(C(=O)NC([2H])([2H])C(=O)O)nc(C)c3c2)c1` [Compound 49, N-[(4-hydroxy-1-methyl-7-(3-d-phenoxy)-3-isoquinolinyl)carbonyl]-2,2-d2-glycine]: in data set [3], the microsomal CLint at 1 μM is below 8.6 µL/min/mg and the half-life at 1 μM is above 2.42 h. In data set [1], the intrinsic metabolic clearance (microsomal CLint) at 1 μM was below 8.6 µL/min/mg and the half-life at 1 μM is above 2.42 h. For the same molecule, in data set [2] (IV, 3 mg/kg single dose), the AUC(0-inf) was determined as 49.5 µg·h/mL, the AUC(0-t) worked out at 49.4 µg·h/mL, the Tmax is 0.08 h and the MRT inf was 2.85 h. Besides, in data set [2] (IV, 3 mg/kg single dose), the Cmax came out at 19500 ng/mL and the Vz_pred is reported as 0.25 L/kg. In data set [2] (PO, 10 mg/kg single dose), the AUC(0-inf) came out at 222 µg·h/mL, the AUC(0-t) was 218 µg·h/mL, the Tmax amounted to 2.67 h and the MRT inf turned out to be 5.83 h. In data set [2] (PO, 10 mg/kg single dose), this molecule returned a Cmax of 25400 ng/mL and a Vz_pred of 0.24 L/kg. The F in data set [2] stood at 132.44%. In data set [2] (iv, 3 mg/kg), this molecule showed a half-life of 2.89 h. The half-life in data set [2] (po, 10 mg/kg) is 3.33 h.

For the molecule “N-[(4-hydroxy-1-(d-methyl)-7-phenoxy-3-isoquinolinyl) carbonyl]-2,2-d2-glycine [Compound 34]”, in data set [1], the “CLint in rat liver microsomes” value was below 8.6 µL/min/mg and the “t1/2 in rat liver microsomes” value is above 2.42 h.
